Data reported in patent US20200163334A1, “INSECT REPELLENT” (FMC Corporation, priority 2016, published 2020).

What was measured:
[1] = test system: Red imported fire ant (Solenopsis invicta); test: Fire ant repellency, baited plates near mounds (Example 6); assay type: in vivo; conditions: separate trial; about 100 mg per plate, within 4 feet of mounds
From the text: Formulation A was poured into a plastic spray bottle and was sprayed onto 20, eight inch paper plates, one squeeze of the pump trigger per plate. […] Ten treated plates were placed randomly on the ground on a farm in Sparks, Ga., USA and ten control (untreated) plates were placed on the ground about 3 feet from the treated plates. Ten treated plates were placed about 4 feet from active Red imported fire ant mounds and ten control plates were placed near the same mounds no closer than 3 feet from the treated plates. Each plate received approximately 15 mL of an aqueous 25% honey solution.
Fifty percent of the control plates had active fire ant feeding within 15 minutes and 100% of the control plates had active fire ant feeding within 30 minutes.

[2] = test system: house flies (Musca domesticae); conditions: U.S. Pat. No. 6,958,146, 7,867,479 and 8,092,790; cited from earlier work
insects = conditions: Table 1 of U.S. Pat. No. 6,958,146, 7,867,479 and 8,092,790; cited from earlier work

## COC(=O)c1ccccc1N [methyl anthranilate]
[1]
  deterrence of fire ant feeding: did not deter fire ants from feeding
[2]
  house fly response: repelled
insects
  insects on sticky traps: quickly became covered with hundreds of insects
